In PubChem BioAssay (NCI):
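Five concentrations, 48 hours, 96-well plates. Abbreviation: GI50, concentration required for 50% inhibition of growth. The concentration for full growth arrest is given as TGI.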

Columns and labels:
Experiment in all cases: NCI-60 cell line screen, 48 h
786-0 renal = test system: 786-0 renal
A498 renal = test system: A498 renal
A549 NSCLC = test system: A549 NSCLC
ACHN renal = test system: ACHN renal
BT-549 breast = test system: BT-549 breast
CAKI-1 renal = test system: CAKI-1 renal
COLO 205 colon = test system: COLO 205 colon
DU-145 prostate = test system: DU-145 prostate
EKVX NSCLC = test system: EKVX NSCLC
HCC-2998 colon = test system: HCC-2998 colon
HCT-15 colon = test system: HCT-15 colon
HL-60(TB) leukemia = test system: HL-60(TB) leukemia
HOP-62 NSCLC = test system: HOP-62 NSCLC
HOP-92 NSCLC = test system: HOP-92 NSCLC
HS 578T breast = test system: HS 578T breast
HT29 colon = test system: HT29 colon
IGROV1 ovarian = test system: IGROV1 ovarian
K-562 leukemia = test system: K-562 leukemia
KM12 colon = test system: KM12 colon
LOX IMVI melanoma = test system: LOX IMVI melanoma
MALME-3M melanoma = test system: MALME-3M melanoma
MCF7 breast = test system: MCF7 breast
MDA-MB-231 breast = test system: MDA-MB-231 breast
MDA-MB-435 = test system: MDA-MB-435
MDA-MB-468 breast = test system: MDA-MB-468 breast
MOLT-4 leukemia = test system: MOLT-4 leukemia
NCI-H226 lung = test system: NCI-H226 lung
NCI-H23 lung = test system: NCI-H23 lung
NCI-H460 lung = test system: NCI-H460 lung
NCI-H522 lung = test system: NCI-H522 lung
NCI/ADR-RES ovarian = test system: NCI/ADR-RES ovarian
OVCAR-3 ovarian = test system: OVCAR-3 ovarian
OVCAR-4 ovarian = test system: OVCAR-4 ovarian
OVCAR-5 ovarian = test system: OVCAR-5 ovarian
OVCAR-8 ovarian = test system: OVCAR-8 ovarian
PC-3 prostate = test system: PC-3 prostate
RXF 393 renal = test system: RXF 393 renal
SF-268 CNS = test system: SF-268 CNS
SF-295 CNS = test system: SF-295 CNS
SF-539 CNS = test system: SF-539 CNS
SK-MEL-2 melanoma = test system: SK-MEL-2 melanoma
SK-MEL-28 melanoma = test system: SK-MEL-28 melanoma
SK-MEL-5 melanoma = test system: SK-MEL-5 melanoma
SK-OV-3 ovarian = test system: SK-OV-3 ovarian
SN12C renal = test system: SN12C renal
SNB-19 CNS = test system: SNB-19 CNS
SNB-75 CNS = test system: SNB-75 CNS
SW-620 colon = test system: SW-620 colon
T-47D breast = test system: T-47D breast
TK-10 renal = test system: TK-10 renal
U251 CNS = test system: U251 CNS
UACC-257 melanoma = test system: UACC-257 melanoma
UACC-62 melanoma = test system: UACC-62 melanoma
UO-31 renal = test system: UO-31 renal

COc1ccc(C(=O)/C=C/c2ccc(Cl)c(C(F)(F)F)c2)cc1S(N)(=O)=O
GI50 (786-0 renal): 419 nM
TGI (786-0 renal): 1800 nM
GI50 (A498 renal): 12900 nM
TGI (A498 renal): 25600 nM
GI50 (A549 NSCLC): 2340 nM
TGI (A549 NSCLC): 10300 nM
GI50 (ACHN renal): 1470 nM
TGI (ACHN renal): 2840 nM
GI50 (BT-549 breast): 1710 nM
TGI (BT-549 breast): 3180 nM
GI50 (CAKI-1 renal): 1570 nM
TGI (CAKI-1 renal): 4160 nM
GI50 (COLO 205 colon): 1960 nM
TGI (COLO 205 colon): 4080 nM
GI50 (DU-145 prostate): 4990 nM
TGI (DU-145 prostate): 17000 nM
GI50 (EKVX NSCLC): 2150 nM
TGI (EKVX NSCLC): 5750 nM
GI50 (HCC-2998 colon): 1590 nM
TGI (HCC-2998 colon): 2930 nM
GI50 (HCT-15 colon): 893 nM
TGI (HCT-15 colon): 2340 nM
GI50 (HL-60(TB) leukemia): 1720 nM
TGI (HL-60(TB) leukemia): 5490 nM
GI50 (HOP-62 NSCLC): 1930 nM
TGI (HOP-62 NSCLC): 4130 nM
GI50 (HOP-92 NSCLC): 2010 nM
TGI (HOP-92 NSCLC): 5810 nM
GI50 (HS 578T breast): 6570 nM
TGI (HS 578T breast): 38800 nM
GI50 (HT29 colon): 1520 nM
TGI (HT29 colon): 3060 nM
GI50 (IGROV1 ovarian): 1870 nM
TGI (IGROV1 ovarian): 4010 nM
GI50 (K-562 leukemia): 1080 nM
TGI (K-562 leukemia): > 100000 nM
GI50 (KM12 colon): 1760 nM
TGI (KM12 colon): 5650 nM
GI50 (LOX IMVI melanoma): 313 nM
TGI (LOX IMVI melanoma): 1100 nM
GI50 (MALME-3M melanoma): 1880 nM
TGI (MALME-3M melanoma): 4010 nM
GI50 (MCF7 breast): 333 nM
TGI (MCF7 breast): 1390 nM
GI50 (MDA-MB-231 breast): 1690 nM
TGI (MDA-MB-231 breast): 3370 nM
GI50 (MDA-MB-435): 1750 nM
TGI (MDA-MB-435): 4280 nM
GI50 (MDA-MB-468 breast): 1340 nM
TGI (MDA-MB-468 breast): 2690 nM
GI50 (MOLT-4 leukemia): 2570 nM
TGI (MOLT-4 leukemia): 8330 nM
GI50 (NCI-H226 lung): 2220 nM
TGI (NCI-H226 lung): 5600 nM
GI50 (NCI-H23 lung): 1620 nM
TGI (NCI-H23 lung): 3040 nM
GI50 (NCI-H460 lung): 2400 nM
TGI (NCI-H460 lung): 6620 nM
GI50 (NCI-H522 lung): 1540 nM
TGI (NCI-H522 lung): 3150 nM
GI50 (NCI/ADR-RES ovarian): 1050 nM
TGI (NCI/ADR-RES ovarian): 3330 nM
GI50 (OVCAR-3 ovarian): 1420 nM
TGI (OVCAR-3 ovarian): 2870 nM
GI50 (OVCAR-4 ovarian): 2800 nM
TGI (OVCAR-4 ovarian): 12500 nM
GI50 (OVCAR-5 ovarian): 3270 nM
TGI (OVCAR-5 ovarian): 9350 nM
GI50 (OVCAR-8 ovarian): 1740 nM
TGI (OVCAR-8 ovarian): 4510 nM
GI50 (PC-3 prostate): 1750 nM
TGI (PC-3 prostate): 4520 nM
GI50 (RXF 393 renal): 1640 nM
TGI (RXF 393 renal): 3100 nM
GI50 (SF-268 CNS): 10000 nM
TGI (SF-268 CNS): 32100 nM
GI50 (SF-295 CNS): 1640 nM
TGI (SF-295 CNS): 3320 nM
GI50 (SF-539 CNS): 1610 nM
TGI (SF-539 CNS): 3000 nM
GI50 (SK-MEL-2 melanoma): 6780 nM
TGI (SK-MEL-2 melanoma): 20400 nM
GI50 (SK-MEL-28 melanoma): 1740 nM
TGI (SK-MEL-28 melanoma): 3190 nM
GI50 (SK-MEL-5 melanoma): 3630 nM
TGI (SK-MEL-5 melanoma): 13300 nM
GI50 (SK-OV-3 ovarian): 7900 nM
TGI (SK-OV-3 ovarian): 23800 nM
GI50 (SN12C renal): 1450 nM
TGI (SN12C renal): 2940 nM
GI50 (SNB-19 CNS): 1660 nM
TGI (SNB-19 CNS): 3370 nM
GI50 (SNB-75 CNS): 1620 nM
TGI (SNB-75 CNS): 9690 nM
GI50 (SW-620 colon): 1230 nM
TGI (SW-620 colon): 2690 nM
GI50 (T-47D breast): 2370 nM
TGI (T-47D breast): 9360 nM
GI50 (TK-10 renal): 2590 nM
TGI (TK-10 renal): 7230 nM
GI50 (U251 CNS): 1420 nM
TGI (U251 CNS): 3080 nM
GI50 (UACC-257 melanoma): 2100 nM
TGI (UACC-257 melanoma): 6200 nM
GI50 (UACC-62 melanoma): 1520 nM
TGI (UACC-62 melanoma): 3410 nM
GI50 (UO-31 renal): 1400 nM
TGI (UO-31 renal): 2740 nM
